According to ChEMBL document CHEMBL4613208, “Isatin derivatives and their anti-bacterial activities” (Eur J Med Chem, 2019):
In brackets after ≈: the same amount, converted by molar mass.

Experiments:
[1] = system: Pseudomonas aeruginosa; experiment: Antibacterial activity against Pseudomonas aeruginosa; format: functional, organism-based
[2] = system: Escherichia coli; experiment: Antibacterial activity against Escherichia coli; format: functional, organism-based
[3] = system: Shigella flexneri; experiment: Antibacterial activity against Shigella flexneri; format: functional
[4] = system: Citrobacter freundii; experiment: Antibacterial activity against Citrobacter freundii; format: functional
[5] = system: Staphylococcus aureus; experiment: Antibacterial activity against Staphylococcus aureus; format: functional, organism-based
[6] = system: Klebsiella pneumoniae; experiment: Antibacterial activity against Klebsiella pneumoniae; format: functional
[7] = system: Staphylococcus epidermidis; experiment: Antibacterial activity against Staphylococcus epidermidis; format: functional
[8] = system: Vibrio cholerae; experiment: Antibacterial activity against Vibrio cholerae; format: functional
[9] = system: Salmonella typhi; experiment: Antibacterial activity against Salmonella typhi; format: functional, Salmonella enterica subsp. enterica serovar Typhi; settings: Salmonella enterica
[10] = system: Escherichia coli; experiment: Antibacterial activity against Escherichia coli assessed as zone of inhibition at 20 mg/ml; format: functional; settings: read-out: IZ
[11] = system: Staphylococcus aureus; experiment: Antibacterial activity against Staphylococcus aureus assessed as zone of inhibition at 20 mg/ml; format: functional; settings: read-out: IZ
[12] = system: Bacillus subtilis; experiment: Antibacterial activity against Bacillus subtilis assessed as zone of inhibition at 20 mg/ml; format: functional; settings: read-out: IZ
[13] = system: Pseudomonas aeruginosa; experiment: Antibacterial activity against Pseudomonas aeruginosa assessed as zone of inhibition at 20 mg/ml; format: functional; settings: read-out: IZ
[14] = system: Pseudomonas aeruginosa; experiment: Antibacterial activity against Pseudomonas aeruginosa by two-fold serial dilution technique; format: functional
[15] = system: Escherichia coli; experiment: Antibacterial activity against Escherichia coli by two-fold serial dilution technique; format: functional
[16] = system: Staphylococcus aureus; experiment: Antibacterial activity against Staphylococcus aureus by two-fold serial dilution technique; format: functional
[17] = system: Bacillus subtilis; experiment: Antibacterial activity against Bacillus subtilis by two-fold serial dilution technique; format: functional
[18] = system: Klebsiella pneumoniae; experiment: Antibacterial activity against Klebsiella pneumoniae after 24 hrs by paper disc diffusion technique; format: functional; settings: Klebsiella pneumoniae, 24 h; read-out: MIC
[19] = system: Pseudomonas aeruginosa; experiment: Antibacterial activity against Pseudomonas aeruginosa after 24 hrs by paper disc diffusion technique; format: functional; settings: Pseudomonas aeruginosa, 24 h; read-out: MIC
[20] = system: Micrococcus luteus; experiment: Antibacterial activity against Micrococcus luteus after 24 hrs by paper disc diffusion technique; format: functional; settings: Micrococcus luteus, 24 h
[21] = system: Bacillus subtilis; experiment: Antibacterial activity against Bacillus subtilis; format: functional
[22] = system: Escherichia coli; experiment: Antibacterial activity against Escherichia coli after 24 hrs by paper disc diffusion technique; format: functional; settings: Escherichia coli, 24 h; read-out: MIC
[23] = system: Staphylococcus aureus; experiment: Antibacterial activity against Staphylococcus aureus after 24 hrs by paper disc diffusion technique; format: functional; settings: Staphylococcus aureus, 24 h; read-out: MIC
[24] = system: Staphylococcus epidermidis; experiment: Antibacterial activity against Staphylococcus epidermidis after 24 hrs by paper disc diffusion technique; format: functional; settings: Staphylococcus epidermidis, 24 h
[25] = system: Proteus vulgaris; experiment: Antibacterial activity against Proteus vulgaris; format: functional
[26] = system: Streptococcus pyogenes; experiment: Antibacterial activity against Streptococcus pyogenes; format: functional

Cc1ccc2c(c1)C(=O)C(=O)N2CN1CCN(c2cc3c(cc2F)c(=O)c(C(=O)O)cn3C2CC2)CC1
MIC [1]: 0.1 to 0.5 µg/mL (≈ 0.198 to 0.991 µM) | MIC [2]: 0.1 to 0.5 µg/mL (≈ 0.198 to 0.991 µM) | MIC [3]: 0.1 to 0.5 µg/mL (≈ 0.198 to 0.991 µM) | MIC [4]: 0.1 to 0.5 µg/mL (≈ 0.198 to 0.991 µM) | MIC [5]: 0.1 to 0.5 µg/mL (≈ 0.198 to 0.991 µM) | MIC [6]: 0.1 to 0.5 µg/mL (≈ 0.198 to 0.991 µM) | MIC [7]: 0.1 to 0.5 µg/mL (≈ 0.198 to 0.991 µM) | MIC [8]: 0.1 to 0.5 µg/mL (≈ 0.198 to 0.991 µM) | MIC [9]: 0.1 to 0.5 µg/mL

CC(C)(C)Nc1oc(N(C(=O)CN2C(=O)C(=O)c3ccccc32)C(C)(C)C)c(C(=O)OC(C)(C)C)c1C(=O)OC(C)(C)C
zone of inhibition at 20000 µg/mL [10]: 15.6 to 26 mm | zone of inhibition at 20000 µg/mL [11]: 15.6 to 26 mm | zone of inhibition at 20000 µg/mL [12]: 15.6 to 26 mm | zone of inhibition at 20000 µg/mL [13]: 15.6 to 26 mm

O=C(N/N=C1\C(=O)Nc2ccc([N+](=O)[O-])cc21)N/N=C1\C(=O)Nc2ccc([N+](=O)[O-])cc21
MIC [14]: 6.25 to 100 µg/mL (≈ 14.3 to 228 µM) | MIC [15]: 6.25 to 100 µg/mL (≈ 14.3 to 228 µM) | MIC [16]: 6.25 to 100 µg/mL (≈ 14.3 to 228 µM) | MIC [17]: 6.25 to 100 µg/mL (≈ 14.3 to 228 µM)

CCOC(=O)CN1C(=O)/C(=C2\SC(=S)N(CC(=O)N(c3oc(NC(C)(C)C)c(C(=O)OCC)c3C(=O)OCC)C(C)(C)C)C2=O)c2ccccc21
zone of inhibition at 20000 µg/mL [10]: 15.6 to 26 mm | zone of inhibition at 20000 µg/mL [11]: 15.6 to 26 mm | zone of inhibition at 20000 µg/mL [12]: 15.6 to 26 mm | zone of inhibition at 20000 µg/mL [13]: 15.6 to 26 mm

O=C(N/N=C1\C(=O)Nc2ccc(Br)cc21)N/N=C1\C(=O)Nc2ccc(Br)cc21
MIC [14]: 6.25 to 100 µg/mL (≈ 12.3 to 198 µM) | MIC [15]: 6.25 to 100 µg/mL (≈ 12.3 to 198 µM) | MIC [16]: 6.25 to 100 µg/mL (≈ 12.3 to 198 µM) | MIC [17]: 6.25 to 100 µg/mL (≈ 12.3 to 198 µM)

O=C(O)c1cn(C2CC2)c2cc(N3CCNCC3)c(F)cc2c1=O [CIPROFLOXACIN]
MIC [1]: < 5 µg/mL | MIC [2]: < 5 µg/mL | MIC [18]: 3.9 to 15.6 µg/mL (≈ 11.8 to 47.1 µM) | MIC [19]: 3.9 to 15.6 µg/mL (≈ 11.8 to 47.1 µM) | MIC [20]: 3.9 to 15.6 µg/mL (≈ 11.8 to 47.1 µM) | MIC [21]: < 5 µg/mL | MIC [5]: < 5 µg/mL | MIC [22]: 3.9 to 15.6 µg/mL (≈ 11.8 to 47.1 µM) | MIC [23]: 3.9 to 15.6 µg/mL (≈ 11.8 to 47.1 µM) | MIC [24]: 3.9 to 15.6 µg/mL (≈ 11.8 to 47.1 µM) | MIC [9]: 2 nM

CC1S/C(=N/N=C2\C(=O)Nc3ccc(S(=O)(=O)N4CCOCC4)cc32)N(c2ccccc2)C1=O (configuration not stated)
MIC [3]: 0.03 to 3.9 µg/mL (≈ 0.0601 to 7.81 µM) | MIC [25]: 0.03 to 3.9 µg/mL (≈ 0.0601 to 7.81 µM) | MIC [21]: 0.03 to 3.9 µg/mL (≈ 0.0601 to 7.81 µM) | MIC [5]: 0.03 to 3.9 µg/mL (≈ 0.0601 to 7.81 µM) | MIC [26]: 0.03 to 3.9 µg/mL (≈ 0.0601 to 7.81 µM) | MIC [6]: 0.03 to 3.9 µg/mL (≈ 0.0601 to 7.81 µM)
